Results on 3 molecules are retold here after patent US20240197726A1, “NOVEL TETRAHYDROISOQUINOLINE ALKALOID COMPOUND CONTAINING MACROCYCLE” (THE UNIVERSITY OF TOKYO, priority 2021, published 2024).

Common to all, as to assay type: cell-based
For assay [1], the system named is HBC-4 breast cancer cells. The assay can be described thus: antitumor activity, sulforhodamine B cell growth assay, HBC-4. The following applies: HBC-4, drug exposure 48 hours, read-out: GI50 value: 50% growth inhibitory concentration. How it is done:
(§1) The THIQ compound containing a macrocyclic structure of the present invention was administered to various cancer cell lines, and the antitumor activity (Go value) was observed. Specifically, verification was performed according to the literature (Yamori, T.; Matsunaga, A.; Sato, S.; Yamazaki, K.; Komi, A.; Ishizu, K. et al. Cancer Res. 1999, 59, 4042) by the following procedure.
(§2) Cells were plated at an appropriate density in a 96-well plate in RPMI 1640 together with 5% fetal bovine serum, and adhered overnight. The cells were exposed to a drug for 48 hours. Then, according to the sulforhodamine B assay described by Skehan et al (Skehan P., Storeng R., Scudiero D., Monks A., McMahon J., Vistica D., Warren J. T., Bokesch H., Kenney S., Boyd M. R. J Natl. Cancer Inst, 1990, 82, 1107-1112), the cell growth rate was measured. The absorbance of the control well (C) and the test well (T) was measured at 525 nm. In addition, the time at which the drug was added was set as time 0, and the absorbance for the test well (T0) was measured. Using these measured values, the cell growth inhibitory effect (% growth=PG) was calculated by the following formula at each concentration of the drug.
(§3) (T<T0): PG=100×[(T−T0)/T]
(§4) The PG values determined above for each cell line were plotted against the concentration (logarithm) on a semi-logarithmic graph, and summarized for each visceral cancer. Concentrations at which the dose-response curve of each cell line crossed the horizontal line of PG=50%, 0%, or −50% were calculated. These concentrations were defined as Log GI50, Log TGI, and Log LC50. Actually, using two data points of the drug concentration before and after crossing each horizontal line, the drug concentration (logarithmic value) at the intersection of the straight line connecting the two points and the horizontal line for each PG was calculated.

Assay [2] has as its system BSY-1 breast cancer cells. The assay can be described thus: antitumor activity, sulforhodamine B cell growth assay, BSY-1. Particulars: BSY-1, drug exposure 48 hours; read-out: GI50 value: 50% growth inhibitory concentration. How it is done:
as §1, §2, §3, §4

The subject of assay [3] is MCF-7 breast cancer cells. The assay can be described thus: antitumor activity, sulforhodamine B cell growth assay, MCF-7. Particulars: MCF-7, drug exposure 48 hours, read-out: GI50 value: 50% growth inhibitory concentration. How it is done:
as §1, §2, §3, §4

Assay [4] deals with MDA-MB-231 breast cancer cells. The assay can be described thus: antitumor activity, sulforhodamine B cell growth assay, MDA-MB-231. The following applies: MDA-MB-231, drug exposure 48 hours, read-out: GI50 value: 50% growth inhibitory concentration. How it is done: as §1, §2, §3, §4
The test system of assay [5] is SF-295 central nervous system cancer cells. The assay can be described thus: antitumor activity, sulforhodamine B cell growth assay, SF-295. Particulars: SF-295, drug exposure 48 hours, read-out: GI50 value: 50% growth inhibitory concentration. The procedure: as §1, §2, §3, §4
Assay [6] has as its system SNB-75 central nervous system cancer cells. The assay can be described thus: antitumor activity, sulforhodamine B cell growth assay, SNB-75. The following applies: SNB-75, drug exposure 48 hours, read-out: GI50 value: 50% growth inhibitory concentration. How it is done:
as §1, §2, §3, §4

Assay [7] relates to SNB-78 central nervous system cancer cells. The assay can be described thus: antitumor activity, sulforhodamine B cell growth assay, SNB-78. Particulars: SNB-78, drug exposure 48 hours, read-out: GI50 value: 50% growth inhibitory concentration. How it is done:
as §1, §2, §3, §4

The subject of assay [8] is HCC2998 colorectal cancer cells. The assay can be described thus: antitumor activity, sulforhodamine B cell growth assay, HCC2998. Particulars: HCC2998, drug exposure 48 hours, read-out: GI50 value: 50% growth inhibitory concentration. The procedure:
as §1, §2, §3, §4

Assay [9] has as its system KM-12 colorectal cancer cells. The assay can be described thus: antitumor activity, sulforhodamine B cell growth assay, KM-12. Particulars: KM-12, drug exposure 48 hours, read-out: GI50 value: 50% growth inhibitory concentration. How it is done:
as §1, §2, §3, §4

For assay [10], the system named is HCT-116 colorectal cancer cells. The assay can be described thus: antitumor activity, sulforhodamine B cell growth assay, HCT-116. Particulars: HCT-116, drug exposure 48 hours, read-out: GI50 value: 50% growth inhibitory concentration. How it is done: as §1, §2, §3, §4
Assay [11] concerns NCI-H226 lung cancer cells. The assay can be described thus: antitumor activity, sulforhodamine B cell growth assay, NCI-H226. The following applies: NCI-H226, drug exposure 48 hours, read-out: GI50 value: 50% growth inhibitory concentration. The procedure: as §1, §2, §3, §4
For assay [12], the system named is NCI-H460 lung cancer cells. The assay can be described thus: antitumor activity, sulforhodamine B cell growth assay, NCI-H460. Particulars: NCI-H460, drug exposure 48 hours, read-out: GI50 value: 50% growth inhibitory concentration. How it is done: as §1, §2, §3, §4
Assay [13] has as its system A549 lung cancer cells. The assay can be described thus: antitumor activity, sulforhodamine B cell growth assay, A549. Particulars: A549, drug exposure 48 hours, read-out: GI50 value: 50% growth inhibitory concentration. How it is done:
as §1, §2, §3, §4

Assay [14] relates to DMS114 lung cancer cells. The assay can be described thus: antitumor activity, sulforhodamine B cell growth assay, DMS114. The following applies: DMS114, drug exposure 48 hours, read-out: GI50 value: 50% growth inhibitory concentration. The procedure:
as §1, §2, §3, §4

The test system of assay [15] is OVCAR-3 cancer cells. The assay can be described thus: antitumor activity, sulforhodamine B cell growth assay, OVCAR-3. The following applies: OVCAR-3, drug exposure 48 hours, read-out: GI50 value: 50% growth inhibitory concentration. How it is done: as §1, §2, §3, §4
For assay [16], the system named is OVCAR-5 cervical cancer cells. The assay can be described thus: antitumor activity, sulforhodamine B cell growth assay, OVCAR-5. The following applies: OVCAR-5, drug exposure 48 hours, read-out: GI50 value: 50% growth inhibitory concentration. How it is done: as §1, §2, §3, §4
Assay [17] deals with OVCAR-8 cancer cells. The assay can be described thus: antitumor activity, sulforhodamine B cell growth assay, OVCAR-8. The following applies: OVCAR-8, drug exposure 48 hours, read-out: GI50 value: 50% growth inhibitory concentration. How it is done: as §1, §2, §3, §4
In assay [18] the test system is RXF-631L kidney cancer cells. The assay can be described thus: antitumor activity, sulforhodamine B cell growth assay, RXF-631L. The following applies: RXF-631L, drug exposure 48 hours; read-out: GI50 value: 50% growth inhibitory concentration. The procedure:
as §1, §2, §3, §4

The test system of assay [19] is St-4 gastric cancer cells. The assay can be described thus: antitumor activity, sulforhodamine B cell growth assay, St-4. Particulars: St-4 (SI-4 in Tables 2-11), drug exposure 48 hours; read-out: GI50 value: 50% growth inhibitory concentration. How it is done:
as §1, §2, §3, §4

The subject of assay [20] is MKN1 gastric cancer cells. The assay can be described thus: antitumor activity, sulforhodamine B cell growth assay, MKN1. The following applies: MKN1, drug exposure 48 hours, read-out: GI50 value: 50% growth inhibitory concentration. The procedure: as §1, §2, §3, §4
The test system of assay [21] is MKN-B gastric cancer cells. The assay can be described thus: antitumor activity, sulforhodamine B cell growth assay, MKN-B. Particulars: MKN-B, drug exposure 48 hours; read-out: GI50 value: 50% growth inhibitory concentration. How it is done: as §1, §2, §3, §4

Like-named read-outs stand apart in the source and are kept apart here.

As to `COc1c(C)cc2c(c1O)[C@@H]1[C@@H]3Cc4c5c(C)c6c(c4C(CNC(=O)[C@H](C)N(C)CC#CCO5)N3[C@@H](C#N)[C@H](C2)N1C)OCO6` [Compound 29], the GI50 in [1] (HBC4) amounted to 1.5 nM; in [2], 0.6 nM; in [3] (Homo sapiens, MCF7) it was 0.67 nM; in assay [4] (Homo sapiens), 2.3 nM; in [5] (Homo sapiens), 3.4 nM; in assay [6] (Homo sapiens), 1.3 nM. The GI50 amounted to 3.1 nM in assay [7] (Homo sapiens); 2.8 nM in assay [8] (Homo sapiens, HCC 2998); 3.1 nM in assay [9] (Homo sapiens, KM12); 2.4 nM in [10] (Homo sapiens); 2.5 nM in assay [11] (Homo sapiens); 2.8 nM in assay [12] (Homo sapiens). Also, the GI50 in assay [13] (Homo sapiens) came to 3.4 nM; in assay [14] (Homo sapiens, DMS-114) it was 0.89 nM; in [15] (Homo sapiens) it was 2.6 nM; in [16] (Homo sapiens), 3.2 nM; in assay [17] (Homo sapiens), 2.6 nM; in [18], 3.1 nM. For the same molecule, the GI50 stood at 3.8 nM in assay [19]; 2.3 nM in assay [20] (Homo sapiens, MKN-1); 3 nM in assay [21].
Take `C#CCN1C/C=C/C(=C)COc2c(C)c3c(c4c2C[C@H]2[C@H]5c6c(cc(C)c(OC)c6O)C[C@@H]([C@H](C#N)N2C4CNC(=O)[C@@H]1C)N5C)OCO3` [Compound 35]: the GI50 came out at 2.2 nM in [1] (HBC4); 1.3 nM in assay [2]; 0.87 nM in assay [3] (Homo sapiens, MCF7); 2.7 nM in [4] (Homo sapiens); 3.8 nM in assay [5] (Homo sapiens); 1.7 nM in [6] (Homo sapiens). Moreover, the GI50 amounted to 3.4 nM in assay [7] (Homo sapiens); 3.6 nM in assay [8] (Homo sapiens, HCC 2998); 3.8 nM in assay [9] (Homo sapiens, KM12); 2.7 nM in [10] (Homo sapiens); 2.7 nM in [11] (Homo sapiens); 3.4 nM in [12] (Homo sapiens). In addition, the GI50 in assay [13] (Homo sapiens) was 7.2 nM; in [14] (Homo sapiens, DMS-114) it was 1.2 nM; in assay [15] (Homo sapiens) it was 3.2 nM; in assay [16] (Homo sapiens), 3.3 nM; in assay [17] (Homo sapiens), 3.1 nM; in [18] it was 2.9 nM. The GI50 in assay [19] is 3.8 nM; in [20] (Homo sapiens, MKN-1) it was 2.7 nM; in assay [21], 3.5 nM.
As to `COC1=C(C)C(=O)C2=C(C1=O)[C@H](CNC(=O)[C@H](C)N)N1C(C2)[C@H]2c3c(cc(C)c(OC)c3O)C[C@@H]([C@@H]1C#N)N2C` (stereo partly shown) [Cyanosafracin B, reference compound], the GI50 in assay [1] was 59 nM; in assay [2], 34 nM; in assay [3], 52 nM; in assay [4], 130 nM; in assay [5], 500 nM; in [6] it was 150 nM. Also, the GI50 in assay [7] was found to be 63 nM; in assay [8], 350 nM; in assay [9] it was 530 nM; in [10], 290 nM; in assay [11] it was 310 nM; in [12] it was 400 nM. Moreover, the GI50 was found to be 1600 nM in [13]; 35 nM in [14] (listed as drawing 116); 38 nM in assay [14] (listed as drawing 148); 130 nM in assay [15]; 390 nM in assay [16]; 290 nM in assay [17]. Besides, the GI50 in [18] is 400 nM; in [19], 430 nM; in assay [20] it was 52 nM; in assay [21] it was 170 nM.
